Data published in PubChem BioAssay (NCI).
Several values for one entry are separate records, joined by “and”; a condition that tells them apart may be missing. Identical values can stand only once.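 96-well plates; 48 h exposure; 5 concentrations. Endpoints by linear interpolation between flanking doses. Not reached: highest tested concentration assigned. GI50: concentration for 50% inhibition of growth. TGI: total growth inhibition.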

Key:
Assay in all cases: NCI-60 cell line screen, 48 h
[1] = test system: 786-0 renal
[2] = test system: BT-549 breast
[3] = test system: CAKI-1 renal
[4] = test system: CCRF-CEM leukemia
[5] = test system: HS 578T breast
[6] = test system: LOX IMVI melanoma
[7] = test system: M14 melanoma
[8] = test system: MDA-MB-231 breast
[9] = test system: NCI-H226 lung
[10] = test system: RPMI-8226 leukemia
[11] = test system: SN12C renal
[12] = test system: SW-620 colon
[13] = test system: TK-10 renal
[14] = test system: UACC-257 melanoma
[15] = test system: NCI-H522 lung

Compound	TGI [1]	TGI [2]	TGI [3]	TGI [4]	TGI [5]	TGI [6]	TGI [7]	TGI [8]	TGI [9]	TGI [10]	TGI [11]	TGI [12]	TGI [13]	TGI [14]	TGI [15]	GI50 [2]	GI50 [3]	GI50 [8]	GI50 [9]	GI50 [15]
Cc1cn(CCCCCOC(=O)NC(CCCN=C(N)N)C(=O)O)c(=O)[nH]c1=O (stereo not drawn)	> 100 µM	> 100 µM	> 100 µM	> 100 µM	71.9 µM	> 100 µM	> 100 µM	> 100 µM	> 100 µM	57 µM	> 100 µM	> 100 µM	> 100 µM	> 100 µM						
O=P(O)(Cc1ccccc1)c1ccccc1-c1ccccc1	> 100 µM	> 100 µM	> 100 µM	> 100 µM	> 100 µM	> 100 µM	> 100 µM	> 100 µM	> 100 µM		> 100 µM	> 100 µM	> 100 µM	> 100 µM	> 100 µM					
COc1ccc(C(=O)/C=C/c2ccncc2)cc1OC	23.5 µM	18.6 µM	29.2 µM	18.6 µM	36.7 µM	3.05 µM	27.8 µM	24.3 µM	30.6 µM		29.2 µM		30 µM	25.5 µM	21.7 µM					
Cn1c(=O)c2c(no[n+]2[O-])c2ccccc21	39.1 µM	34.2 µM	32.4 µM	48.9 µM	62.2 µM	31.4 µM	25.3 µM	48 µM	40.4 µM	62 µM	59.8 µM	41.2 µM	56.5 µM	33.2 µM	27.8 µM					
Cc1c(CNc2ccc(C(=O)NC(CC(=O)O)C(=O)O)cc2)ccc2nc(N)nc(N)c12 (stereo not drawn)	> 1000 µM	> 1000 µM	> 1000 µM		> 1000 µM	> 1000 µM	> 1000 µM	> 1000 µM	> 1000 µM		> 1000 µM	> 1000 µM		> 1000 µM	> 73.8 µM and 691 µM	> 1000 µM	48.6 µM	> 1000 µM	> 1000 µM	0.57 µM
CN(CCN(C)C(=S)NN)C(=S)NN	> 100 µM	> 100 µM	> 100 µM	> 100 µM	> 100 µM	> 100 µM	> 100 µM	> 100 µM		> 100 µM	> 100 µM	> 100 µM		> 100 µM	> 100 µM					
COc1ccc(/C=N/n2c(-c3ccccc3)n[nH]c2=O)cc1	> 100 µM	> 100 µM	> 100 µM	> 100 µM	93.7 µM		> 100 µM	> 100 µM	> 100 µM	> 100 µM	> 100 µM	> 100 µM		> 100 µM						
O=C1C[C@H]2[C@@H](O1)[C@@H](O)CN1C(=O)c3ccccc3[C@H]21	> 100 µM	> 100 µM	> 100 µM	> 100 µM		> 100 µM	> 100 µM	> 100 µM	> 100 µM	> 100 µM	> 100 µM	> 100 µM	> 100 µM	> 100 µM	> 100 µM					
CC[C@]1(Cc2ccc(OC)c(OC)c2)[C@@H]2C[C@@H](C3OCCO3)ON2O[C@H](OC2CCCC2(c2ccccc2)c2ccccc2)[C@@H]1OC(C)=O (stereo partly drawn)	41.1 µM	55.9 µM	82.1 µM	60.8 µM		53.9 µM	39.6 µM	> 100 µM	36.5 µM		> 100 µM	> 100 µM	> 100 µM	43.9 µM	29.7 µM					
Oc1ccc(-c2nc(-c3ccc(F)cc3)c(-c3ccc4ccccc4n3)[nH]2)cc1	66 µM	36.6 µM	31.3 µM	> 100 µM	28.6 µM	27.9 µM	22.9 µM	41.4 µM	28.6 µM	> 100 µM	32.1 µM	29.1 µM	26 µM	26.3 µM						
O=C(NC(CO)Cc1ccc(Oc2cc(CC(CO)NC(=O)OCc3ccccc3)ccc2OC(=O)OCc2ccccc2)cc1)OCc1ccccc1 (stereo not drawn)	> 100 µM	38.7 µM	> 100 µM	> 100 µM	28.4 µM	32.9 µM	55.1 µM		40.7 µM	31 µM	> 100 µM	> 100 µM	54.1 µM	29 µM						
NC12Oc3cc(O)cc(O)c3C1(c1ccc(Cl)cc1)c1c(O)cc(O)cc1O2 (stereo not drawn)	> 100 µM	> 100 µM	> 100 µM	> 100 µM	> 100 µM	> 100 µM	> 100 µM		> 100 µM	> 100 µM	> 100 µM	> 100 µM	> 100 µM	> 100 µM	92.9 µM					
Cn1c(N)c2c3c(sc2nc1=O)CCCC3	> 75 µM	> 75 µM	> 75 µM		> 75 µM	> 75 µM		> 75 µM	> 75 µM	> 75 µM	> 75 µM	> 75 µM	> 75 µM	> 75 µM	> 75 µM					
CCOC(=O)c1cc(C2(O)CCN(CC(C)CC)C2=O)c(-c2cc(C)no2)[nH]1 (stereo not drawn)	> 100 µM	> 100 µM	> 100 µM	> 100 µM	> 100 µM	> 100 µM	> 100 µM	> 100 µM	> 100 µM	> 100 µM	> 100 µM	> 100 µM		> 100 µM						
Cc1ccc(NC(=S)NNC(=O)c2cc(-c3ccccc3)nc3ccccc23)cc1	26.1 µM	32.7 µM	45.9 µM		38.2 µM		26.8 µM	36.3 µM	39.7 µM	39.2 µM	31.8 µM	25.9 µM	29.1 µM	33 µM	39 µM					
Cc1ccsc1/C=N/Nc1ccc2ccccc2n1	> 100 µM	> 100 µM	> 100 µM	> 100 µM	> 100 µM	> 100 µM	> 100 µM		> 100 µM	> 100 µM	> 100 µM	> 100 µM	66.2 µM	53.2 µM						
